According to patent US20240156856A1, “NOVEL APPLICATIONS OF HYALURONIC ACID FOR TREATMENT OF PAIN AND PRURITIS” (THE REGENTS OF THE UNIVERSITY OF CALIFORNIA, priority 2022, published 2024):
“Also recorded” adds a separate entry of the source.

How the values were obtained:
Type in all cases: in vivo, Sprague-Dawley rats
[1] = system: rats with bortezomib CIPN; assay: Bortezomib CIPN mechanical hyperalgesia, Randall-Selitto paw-withdrawal test; settings: topical 2 μg/μL
Method: (§1) Experimental animals. Experiments were performed on 220-400 g male and female Sprague-Dawley rats, purchased from Charles River Laboratories (Hollister, CA, USA), housed three per cage, under a 12-hour light/dark cycle, in a temperature- and humidity-controlled animal care facility at the University of California, San Francisco. Food and water were available ad libitum. Experimental protocols were approved by the University of California, San Francisco, Institutional Animal Care and Use Committee, and adhered to the National Institutes of Health Guidelines for the care and use of laboratory animals.
(§2) Measurement of nociceptive threshold. Mechanical nociceptive threshold was quantified with an Ugo Basile Analgesymeter (Stoelting, Wood Dale, IL, USA), used to perform the Randall-Selitto paw-withdrawal test [61; 68; 69]. This device uses a dome-shaped plinth to apply a mechanical force that increases linearly with time, to the dorsum of a rat's hindpaw. To perform the Randall-Selitto paw-withdrawal test, rats were placed in cylindrical acrylic restrainers with lateral ports that allow access to the hind paw, as described previously. Rats were acclimatized to the testing procedure by placing them in restrainers for 1 h per day for 3 consecutive daily training sessions, and for 30-40 min prior to experiments.
Mechanical nociceptive threshold is defined as the force, in grams, applied by the plinth to the dorsum of the hindpaw, at which a rat withdraws its paw from the stimulus. Baseline paw-withdrawal threshold is defined as the mean of three readings taken before administration of test agents. To minimize experimenter bias, individuals conducting experiments were blinded to experimental treatments. Each experiment was performed on a different group of rats. Data are presented as mechanical nociceptive threshold, in grams (g) or percentage change from preintervention baseline. […]

[2] = system: rats with paclitaxel CIPN; assay: Paclitaxel CIPN mechanical hyperalgesia, Randall-Selitto paw-withdrawal test
Method: as §1, §2
(§3) Mechanical nociceptive threshold is defined as the force, in grams, applied by the plinth to the dorsum of the hindpaw, at which a rat withdraws its paw from the stimulus. Baseline paw-withdrawal threshold is defined as the mean of three readings taken before administration of test agents. To minimize experimenter bias, individuals conducting experiments were blinded to experimental treatments. Each experiment was performed on a different group of rats. Data are presented as mechanical nociceptive threshold, in grams (g) or percentage change from preintervention baseline.
(§4) Hyaluronans were initially dissolved in distilled water (dH2O) at a concentration of 10 μg/μL, stock solution, and further diluted by adding DMSO with three final concentrations of hyaluronan (1, 2 and 4 μg/μL), protamine or terpene; unless otherwise stated, the final concentration of DMSO was 75%. The DMSO vehicle was 75% DMSO in 0.9% saline. In one experiment, 500-1200 kDa hyaluronan was administered topically in 0.9% saline vehicle. PGE2 was dissolved in 0.9% saline at the same final concentration that we previously injected intradermally (100 ng/5 μL). In the experiments in which hyaluronan was dissolved in protamine or terpene vehicle, protamine was first dissolved in distilled water (dH2O) to a concentration of 5 μg/μ1, stock solution of hyaluronan was combined with protamine at the final concentration of 2 μg/μ1, in a volume of 3 μl, for topical administration; terpene was first dissolved in dH2O at the concentration of 2 μg/μ1, then hyaluronan was dissolved in stock solution of terpene to its final concentration of 2 μg/μ1, in a volume of 3 μl, for topical administration).
Paclitaxel CIPN: Paclitaxel was dissolved in Cremophor EL and ethanol (1:1) [1; 6; 20; 22] and diluted in 0.9% saline to a concentration of 1 mg/mL, just prior to its intraperitoneal (i.p.) administration (1 mg/kg, i.p.) [19; 42] to rats briefly anesthetized with isoflurane (2.5% in O2), every other day for a total of 4 doses.
Hyaluronans (30 μL) were administered topically on the dorsum of the hind paw, dispensed from a P200 pipette (Gilson, Middleton, WI, USA) with a plastic pipette tip and then spread manually.
Antisense oligodeoxynucleotides (ODNs).
Before use, ODNs were reconstituted in nuclease-free 0.9% saline and then administered by the intrathecal (i.t.) route. As described previously, rats were anesthetized with isoflurane (2.5% in O2) and 120 μg of ODN, in a volume of 20 μL, injected i.t., using a syringe ([…]) attached to a 29-gauge hypodermic needle that was inserted into the subarachnoid space, between the L4 and L5 vertebrae. […]

[3] = system: rats with oxaliplatin CIPN; assay: Oxaliplatin CIPN mechanical hyperalgesia, Randall-Selitto paw-withdrawal test
Method: as §1, §2, §3, §4
Oxaliplatin CIPN: Oxaliplatin was freshly dissolved in 0.9% saline at a concentration of 2 mg/mL just prior to its tail vein intravenous (i.v.) administration (1 mL/kg), to rats briefly anesthetized with isoflurane (2.5% in O2).
Hyaluronans (30 μL) were administered topically on the dorsum of the hind paw, dispensed from a P200 pipette (Gilson, Middleton, WI, USA) with a plastic pipette tip and then spread manually. […]
Before use, ODNs were reconstituted in nuclease-free 0.9% saline and then administered by the intrathecal (i.t.) route. As described previously, rats were anesthetized with isoflurane (2.5% in O2) and 120 μg of ODN, in a volume of 20 μL, injected i.t., using a syringe ([…]) attached to a 29-gauge hypodermic needle that was inserted into the subarachnoid space, between the L4 and L5 vertebrae. The i.t. site of the injectate was confirmed by a sudden flick of the rat's tail, a reflex evoked by subarachnoid space access and bolus i.t. injection. […]

[4] = female rats given i.t. GPR30 antisense or mismatch ODN, topical 2 μg/μL, 30 μL
[5] = gonad intact female rats, topical 2 μg/μL, 30 μL in DMSO vehicle
[6] = male rats given i.t. CD44 antisense or mismatch ODN, topical 2 μg/μL, 30 μL in DMSO
[7] = male rats, reapplied at the same site after first effect wore off, DMSO vehicle
[8] = male rats, topical 2 μg/μL, 30 μL in DMSO, day 7
[9] = male rats, topical 2 μg/μL, 30 μL in DMSO, repeated-administration experiment
[10] = ovariectomized female rats, topical 2 μg/μL, 30 μL in DMSO

Question: hyaluronan [500-1200 kDa hyaluronan] was tested. Which “hyperalgesia induced by bortezomib” value ([1]; female rats, 30 μL in DMSO vehicle) did it give?
Answer: did not attenuate hyperalgesia

Question: What about the “hyperalgesia induced by bortezomib” value ([1]; male rats, 30 μL in DMSO, day 7) of the same substance?
Answer: attenuated hyperalgesia induced by bortezomib

Question: What about the “hyperalgesia induced by paclitaxel” value [2, 4] of the same substance?
Answer: only attenuated the hyperalgesia induced by paclitaxel in the GPR30 antisense-treated group

Question: What about the “hyperalgesia induced by paclitaxel” value [2, 5] of the same substance?
Answer: did not attenuate hyperalgesia

Question: What about the “hyperalgesia induced by paclitaxel” value [2, 6] of the same substance?
Answer: attenuated the hyperalgesia induced by paclitaxel only in the CD44 mismatch-treated group

Question: And the “time at which anti-hyperalgesia was still present after the second administration” value [2, 7]?
Answer: ≥ 180 min

Question: What about the “hyperalgesia induced by paclitaxel” value [2, 8] of the same substance?
Answer: attenuated the hyperalgesia induced by paclitaxel

Question: And the “time by which anti-hyperalgesia dissipated, first administration” value [2, 9]?
Answer: ≤ 120 min

Question: What about the “anti-hyperalgesia in paclitaxel-induced CIPN” value [2, 10] of the same substance?
Answer: induced anti-hyperalgesia of similar magnitude to that observed in gonad intact male rats

Question: And the “duration of anti-hyperalgesic effect after initial topical application” value ([3]; CIPN rats, initial application, DMSO vehicle)?
Answer: approximately 60 minutes

Question: What about the “hyperalgesia induced by oxaliplatin” value [3, 4] of the same substance?
Answer: attenuated the hyperalgesia induced by oxaliplatin only in the GPR30 antisense-treated group

Question: What about the “hyperalgesia induced by oxaliplatin” value [3, 5] of the same substance?
Answer: did not attenuate hyperalgesia

Question: What about the “hyperalgesia induced by oxaliplatin” value [3, 6] of the same substance?
Answer: only attenuated the hyperalgesia induced by oxaliplatin in the CD44 mismatch-treated group

Question: And the “CIPN hyperalgesia, effect of hyaluronan molecular weight range” value ([3]; male rats with oxaliplatin CIPN, topical, combined with DMSO)?
Answer: produced robust anti-hyperalgesia, of similar magnitude and duration

Question: What about the “time at which anti-hyperalgesia was still present after the second administration” value [3, 7] of the same substance?
Answer: ≥ 180 min

Question: And the “oxaliplatin CIPN hyperalgesia” value ([3]; male rats, topical 1 μg/μL, 30 μL in DMSO, day 7)?
Answer: only attenuates CIPN hyperalgesia 10 min after application

Question: What about the “oxaliplatin CIPN hyperalgesia” value ([3]; male rats, topical 2 μg/μL in 0.9% saline, without DMSO) of the same substance?
Answer: did not attenuate oxaliplatin CIPN hyperalgesia

Question: And the “anti-hyperalgesia in oxaliplatin CIPN” value ([3]; male rats, topical 2 μg/μL, 30 μL in 5% DMSO)?
Answer: did not produce anti-hyperalgesia

Question: And the “anti-hyperalgesia in oxaliplatin CIPN” value ([3]; male rats, topical 2 μg/μL, 30 μL in 15% DMSO)?
Answer: did not produce anti-hyperalgesia

Question: What about the “anti-hyperalgesia in oxaliplatin CIPN” value ([3]; male rats, topical 2 μg/μL, 30 μL in 20% DMSO) of the same substance?
Answer: produced anti-hyperalgesia

Question: What about the “anti-hyperalgesia in oxaliplatin CIPN” value ([3]; male rats, topical 2 μg/μL, 30 μL in 25% DMSO) of the same substance?
Answer: produced anti-hyperalgesia

Question: And the “anti-hyperalgesia in oxaliplatin CIPN” value ([3]; male rats, topical 2 μg/μL, 30 μL in 50% DMSO)?
Answer: produced anti-hyperalgesia

Question: And the “anti-hyperalgesia in oxaliplatin CIPN” value ([3]; male rats, topical 2 μg/μL, 30 μL in 75% DMSO)?
Answer: produced anti-hyperalgesia

Question: What about the “oxaliplatin CIPN hyperalgesia” value [3, 8] of the same substance?
Answer: attenuated hyperalgesia 10, 30 and 60 min after application; also recorded: induced anti-hyperalgesia

Question: What about the “time by which anti-hyperalgesia dissipated, first administration” value [3, 9] of the same substance?
Answer: ≤ 120 min

Question: What about the “oxaliplatin CIPN hyperalgesia” value ([3]; male rats, topical 4 μg/μL, 30 μL in DMSO, day 7) of the same substance?
Answer: attenuated hyperalgesia 10, 30 and 60 min after application

Question: And the “time after application by which the anti-hyperalgesic effect dissipated” value ([3]; male rats, topical 2 and 4 μg/μL in DMSO)?
Answer: ≤ 120 min

Question: What about the “anti-hyperalgesia in oxaliplatin-induced CIPN” value [3, 10] of the same substance?
Answer: induced anti-hyperalgesia of similar magnitude to that observed in gonad intact male rats
